Measured values from US7094752B2 (Chiron Corporation, priority 1997, dated 2006).
Marks after values point to notes of the source that are not given here. Square brackets hold non-standard residues; d marks the D form. Peptide text beside a SMILES is read from it.

Molecular target: soluble uPAR (Homo sapiens, UniProt Q03405)
Conditions: for % Inhibition 2.5 uM: 2500.0; for % Inhibition 5 uM: 5000.0; for receptor binding activity, alanine scan of peptide 9: compared to peptide 9

Sequence of soluble uPAR (Q03405 23-305 limits assumed): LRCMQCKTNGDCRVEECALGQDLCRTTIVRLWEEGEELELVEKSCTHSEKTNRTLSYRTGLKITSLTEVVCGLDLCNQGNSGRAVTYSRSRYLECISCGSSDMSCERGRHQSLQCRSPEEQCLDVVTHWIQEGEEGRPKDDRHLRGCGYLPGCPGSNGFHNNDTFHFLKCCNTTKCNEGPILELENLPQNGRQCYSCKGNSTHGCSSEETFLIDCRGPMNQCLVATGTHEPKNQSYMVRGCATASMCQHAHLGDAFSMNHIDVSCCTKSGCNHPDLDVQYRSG

With `CC(C)C[C@H](NC(=O)[C@H](CCCCN)NC(=O)[C@H](Cc1ccccc1)NC(=O)[C@H](Cc1ccccc1)NC(=O)[C@H](CCC(=O)O)NC(=O)[C@H](C)N)C(=O)NCC(=O)N1CCC[C@H]1C(=O)N[C@@H](CC(N)=O)C(=O)N[C@H](CO)C(=O)N[C@@H](Cc1ccc(O)cc1)C(=O)N[C@H](C(=O)N[C@@H](Cc1ccc(O)cc1)C(=O)N[C@@H](CC(C)C)C(=O)N[C@@H](Cc1c[nH]cn1)C(=O)N[C@@H](CO)C(=O)N[C@@H](C)C(N)=O)C(C)C` [Analog 80] (H-AEFFKLGPN[dS]YVYLHSA-NH2) the “% Inhibition 2.5 uM” value was 89% and the “% Inhibition 5 uM” value was 95%.

With `CC(C)C[C@H](NC(=O)[C@H](CCCCN)NC(=O)[C@H](Cc1ccccc1)NC(=O)[C@H](Cc1ccccc1)NC(=O)[C@H](CCC(=O)O)NC(=O)[C@H](C)N)C(=O)NCC(=O)N1CCC[C@H]1C(=O)N[C@@H](CC(N)=O)C(=O)N[C@H](C)C(=O)N[C@@H](Cc1ccc(O)cc1)C(=O)N[C@H](C(=O)N[C@@H](Cc1ccc(O)cc1)C(=O)N[C@@H](CC(C)C)C(=O)N[C@@H](Cc1c[nH]cn1)C(=O)N[C@@H](CO)C(=O)N[C@@H](C)C(N)=O)C(C)C` [Analog 81] (H-AEFFKLGPN[dA]YVYLHSA-NH2) the “% Inhibition 2.5 uM” value was 79% and the “% Inhibition 5 uM” value was 80%.

`CC(C)C[C@H](NC(=O)[C@H](CCCCN)NC(=O)[C@H](Cc1ccccc1)NC(=O)[C@H](Cc1ccccc1)NC(=O)[C@H](CCC(=O)O)NC(=O)[C@@H](C)N)C(=O)NCC(=O)N1CCC[C@H]1C(=O)N[C@@H](CC(N)=O)C(=O)NCC(=O)N[C@@H](Cc1ccc(O)cc1)C(=O)N[C@H](C(=O)N[C@@H](Cc1ccc(O)cc1)C(=O)N[C@@H](CC(C)C)C(=O)N[C@@H](Cc1c[nH]cn1)C(=O)N[C@@H](CO)C(=O)N[C@@H](C)C(N)=O)C(C)C` [Analog 82] (H-[dA]EFFKLGPNGYVYLHSA-NH2) was tested, and the “% Inhibition 2.5 uM” value was 24* % and the “% Inhibition 5 uM” value was 41%.

`CC(C)C[C@H](NC(=O)[C@H](CCCCN)NC(=O)[C@H](Cc1ccccc1)NC(=O)[C@H](Cc1ccccc1)NC(=O)[C@@H](CCC(=O)O)NC(=O)[C@H](C)N)C(=O)NCC(=O)N1CCC[C@H]1C(=O)N[C@@H](CC(N)=O)C(=O)NCC(=O)N[C@@H](Cc1ccc(O)cc1)C(=O)N[C@H](C(=O)N[C@@H](Cc1ccc(O)cc1)C(=O)N[C@@H](CC(C)C)C(=O)N[C@@H](Cc1c[nH]cn1)C(=O)N[C@@H](CO)C(=O)N[C@@H](C)C(N)=O)C(C)C` [Analog 83] (H-A[dE]FFKLGPNGYVYLHSA-NH2) was tested, and the “% Inhibition 2.5 uM” value was 44% and the “% Inhibition 5 uM” value was 59%.

With `CC(C)C[C@H](NC(=O)[C@H](CCCCN)NC(=O)[C@H](Cc1ccccc1)NC(=O)[C@H](Cc1ccccc1)NC(=O)[C@H](CCC(=O)O)NC(=O)[C@H](C)N)C(=O)NCC(=O)N1CCC[C@@H]1C(=O)N[C@@H](CC(N)=O)C(=O)NCC(=O)N[C@@H](Cc1ccc(O)cc1)C(=O)N[C@H](C(=O)N[C@@H](Cc1ccc(O)cc1)C(=O)N[C@@H](CC(C)C)C(=O)N[C@@H](Cc1c[nH]cn1)C(=O)N[C@@H](CO)C(=O)N[C@@H](C)C(N)=O)C(C)C` [Analog 88] (H-AEFFKLG[dP]NGYVYLHSA-NH2) the “% Inhibition 2.5 uM” value was 80* % and the “% Inhibition 5 uM” value was 76%.

`CC(C)C[C@H](NC(=O)[C@H](CCCCN)NC(=O)[C@H](Cc1ccccc1)NC(=O)[C@H](Cc1ccccc1)NC(=O)[C@H](CCC(=O)O)NC(=O)[C@H](C)N)C(=O)NCC(=O)N1CCC[C@H]1C(=O)N[C@H](CC(N)=O)C(=O)NCC(=O)N[C@@H](Cc1ccc(O)cc1)C(=O)N[C@H](C(=O)N[C@@H](Cc1ccc(O)cc1)C(=O)N[C@@H](CC(C)C)C(=O)N[C@@H](Cc1c[nH]cn1)C(=O)N[C@@H](CO)C(=O)N[C@@H](C)C(N)=O)C(C)C` [Analog 89] (H-AEFFKLGP[dN]GYVYLHSA-NH2) was tested, and the “% Inhibition 2.5 uM” value was 15% and the “% Inhibition 5 uM” value was 13%.

`CC(C)C[C@H](NC(=O)[C@H](CCCCN)NC(=O)[C@H](Cc1ccccc1)NC(=O)[C@H](Cc1ccccc1)NC(=O)[C@H](CCC(=O)O)NC(=O)[C@H](C)N)C(=O)NCC(=O)N1CCC[C@H]1C(=O)N[C@@H](CC(N)=O)C(=O)NCC(=O)N[C@@H](Cc1ccc(O)cc1)C(=O)N[C@H](C(=O)N[C@H](Cc1ccc(O)cc1)C(=O)N[C@@H](CC(C)C)C(=O)N[C@@H](Cc1c[nH]cn1)C(=O)N[C@@H](CO)C(=O)N[C@@H](C)C(N)=O)C(C)C` [Analog 92] (H-AEFFKLGPNGYV[dY]LHSA-NH2) was tested, and the “% Inhibition 2.5 uM” value was 8.5% and the “% Inhibition 5 uM” value was 3.3%.

In the case of `CC(C)C[C@H](NC(=O)[C@H](CCCCN)NC(=O)[C@H](Cc1ccccc1)NC(=O)[C@H](Cc1ccccc1)NC(=O)[C@H](CCC(=O)O)NC(=O)[C@H](C)N)C(=O)NCC(=O)N1CCC[C@H]1C(=O)N[C@@H](CC(N)=O)C(=O)NCC(=O)N[C@@H](Cc1ccc(O)cc1)C(=O)N[C@H](C(=O)N[C@@H](Cc1ccc(O)cc1)C(=O)N[C@@H](CC(C)C)C(=O)N[C@H](Cc1c[nH]cn1)C(=O)N[C@@H](CO)C(=O)N[C@@H](C)C(N)=O)C(C)C` [Analog 94] (H-AEFFKLGPNGYVYL[dH]SA-NH2), the “% Inhibition 2.5 uM” value is reported as 36% and the “% Inhibition 5 uM” value is reported as 41%.

With `CC(C)C[C@H](NC(=O)[C@H](CCCCN)NC(=O)[C@H](Cc1ccccc1)NC(=O)[C@H](Cc1ccccc1)NC(=O)[C@H](CCC(=O)O)NC(=O)[C@H](C)N)C(=O)NCC(=O)N1CCC[C@H]1C(=O)N[C@@H](CC(N)=O)C(=O)NCC(=O)N[C@@H](Cc1ccc(O)cc1)C(=O)N[C@H](C(=O)N[C@@H](Cc1ccc(O)cc1)C(=O)N[C@@H](CC(C)C)C(=O)N[C@@H](Cc1c[nH]cn1)C(=O)N[C@H](CO)C(=O)N[C@@H](C)C(N)=O)C(C)C` [Analog 95] (H-AEFFKLGPNGYVYLH[dS]A-NH2) the “% Inhibition 2.5 uM” value was 47% and the “% Inhibition 5 uM” value was 59%.

In the case of `CC(C)C[C@H](NC(=O)[C@H](CCCCN)NC(=O)[C@H](Cc1ccccc1)NC(=O)[C@H](Cc1ccccc1)NC(=O)[C@H](CCC(=O)O)NC(=O)[C@H](C)N)C(=O)NCC(=O)N1CCC[C@H]1C(=O)N[C@@H](CC(N)=O)C(=O)NCC(=O)N[C@@H](Cc1ccc(O)cc1)C(=O)N[C@H](C(=O)N[C@@H](Cc1ccc(O)cc1)C(=O)N[C@@H](CC(C)C)C(=O)N[C@@H](Cc1c[nH]cn1)C(=O)N[C@@H](CO)C(=O)N[C@H](C)C(N)=O)C(C)C` [Analog 96] (H-AEFFKLGPNGYVYLHS[dA]-NH2), the “% Inhibition 2.5 uM” value is reported as 38* % and the “% Inhibition 5 uM” value is reported as 40%.

For AAFFKLGPNGYVYLHSA [Analog 65], the “receptor binding activity, alanine scan of peptide 9” value (“receptor binding activity” for short) was “decreased but did not destroy”.

For AEFAKLGPNGYVYLHSA [Analog 67], the “receptor binding activity” value was “decreased but did not destroy”.

With AEFFKAGPNGYVYLHSA [Analog 69] the “receptor binding activity” value was “destroyed receptor binding activity”.

AEFFKLGPNGAVYLHSA [Analog 74] was tested, and the “receptor binding activity” value was “destroyed receptor binding activity”.

With AEFFKLGPNGYAYLHSA [Analog 75] the “receptor binding activity” value was “destroyed receptor binding activity”.

AEFFKLGPNGYVALHSA [Analog 76] was tested, and the “receptor binding activity” value was “destroyed receptor binding activity”.

AEFFKLGPNGYVYAHSA [Analog 77] was tested, and the “receptor binding activity” value was “decreased but did not destroy”.
